# Test results as given in US8445440B2, “Dimeric IAP inhibitors” (Novartis AG, priority 2010, dated 2013).
# Key:
# XIAP-BIR3 = XIAP-BIR3 (Homo sapiens, UniProt P98170); experiment: Biacore SPR solution competition binding assay vs smac7 mer peptide, XIAP-BIR3; settings: citrate salt form tested; 100 nM XIAP-BIR3; 25° C.; read-out: XIAP-BIR3 Binding Biacore (Competitive) EC50
# Excerpt: (§1) The compounds described herein above were profiled using a cellular assay (using SKOV3 or Panc3.27 tumor cells) and a binding assay to determine the competition between the compounds of the present invention and smac7 mer peptide for XIAP-BIR3 and cIAP1-BIR3 binding groove occupancy.
# (§2) The present method includes utility of a Surface plasmon resonance (SPR)-based biosensor (Biacore™ GE Healthcare, Uppsala, Sweden) to examine competition between the compounds of the present invention and smac7 mer peptide for XIAP-BIR3 and cIAP1-BIR3 binding groove occupancy.
# (§3) Biacore™ utilizes the phenomenon of surface plasmon resonance (SPR) to detect and measure binding interactions. In a typical Biacore experiment, one of the interacting molecules is immobilized on a flexible dextran matrix while the interacting partner is flowed over the derivatized surface. A binding interaction results in an increase in mass on the sensor surface and a corresponding direct change in the refractive index of the medium in the vicinity of the sensor surface. Changes in refractive index or signal are recorded in resonance units (R.U.) Signal changes due to association and dissociation of complexes are monitored in a non-invasive manner, continuously and in real-time, the results of which are reported in the form of a sensorgram.
# (§4) Biacore™ T100 (GE Healthcare, Uppsala, Sweden) was used to conduct all experiments reported herein. Sensor surface preparation and interaction analyses were performed at 25° C. Buffer and Biacore reagents were purchased from GE Healthcare. Running buffer containing 10 mM Hepes, pH7.4, 150 mM sodium chloride, 1.25 mM Dithiothreitol, 2% Dimethyl sulfoxide and 0.05% polysorbate 20 was utilized throughout all experiments.
# (§5) Biotinylated smac7 mer peptide was diluted to 10 nM in running buffer and captured onto a sensor surface pre-derivatized with streptavidin (sensor chip SA) towards peptide surface densities in the range 40-100 R.U. Peptide captured surfaces were blocked with 500 μM PEO2-Biotin (Thermo Scientific).
# (§6) Interaction analyses were performed by first equilibrating each compound within a six point seven fold compound dilution series in the range 1 μM to 0.06 nM with either 100 nM XIAP-BIR3 or 6 nM cIAP1-BIR3 for at least one hour during instrument start-up procedures. Protein compound mixtures were then injected over reference and smac7 mer peptide surfaces in series for 60 seconds at a flow-rate of 64 μL/minutes. Surface regeneration was performed at the end of each analysis cycle by a 30 second injection of 10 mM Glycine, pH 2.5, 1M Sodium Chloride, 0.05% polysorbate 20. Additionally, control compound samples and control XIAP-BIR3 or cIAP1-BIR3 samples were prepared and run at regular intervals to monitor surface and assay performance.
# (§7) Data analyses were carried out using Biacore™ T100 evaluation software v2.0 to validate assay quality. Binding level report points were plotted versus logarithmic compound concentration values and analyzed in Graphpad prism 5 via non-linear regression using a one-site competition model. EC50 values were generated and used as a measure of inhibitor potency.
# cIAP1-BIR3 = cIAP1-BIR3 (Homo sapiens, UniProt Q13490); experiment: Biacore SPR solution competition binding assay vs smac7 mer peptide, cIAP1-BIR3; settings: citrate salt form tested; 6 nM cIAP1-BIR3; 25° C.; read-out: CIAP-BIR3 Binding Biacore (Competitive) EC50
# Excerpt: as §1, §2, §3, §4, §5, §6, §7
# SKOV3 tumor cells = experiment: Cellular assay, SKOV3 tumor cell proliferation (Cell Titer Glo); format: cell-based; settings: Homo sapiens, SK-OV-3, citrate salt form tested, 72 hour growth
# Protocol: as §1
# (§8) On day one adherent SKOV3 and Panc3.27 cells are plated into two 96-well, clear, flat bottom plates. All wells in row A contain 90 uL of media. All wells in rows B-G contain a total volume of 90 uL per well and 2000 cells per well for SKOV3 and 4000 cells per well for Panc3.27 cell lines. Plates are then incubated overnight for 18 hours at 37° C., 5% CO2.
# (§9) On day two cells are treated with the compounds of formula M-L-M′. Treatments are done in triplicate. The compounds are first serially diluted in DMSO and then added to media giving a final concentration of 0.2% DMSO when added to cells. Cells are treated with 10 uL of serially diluted compounds of formula M-L-M′ at a final concentration of 1000 nM, 200 nM, 40 nM, 8 nM, 1.6 nM, 0.32 nM, 0.06 nM, 0.013 nM, 0.0026 nM, and one untreated well. Plate two is used as a time zero plate.
# (§10) To measure cell viability 50 uL of Cell Titer Glo (CTG) solution is added to row A, media only and B, cells and media. CTG is purchased from Promega Corporation catalog number G7573. The solution is prepared according to manufacturer's instructions. CTG measures the amount of ATP released from viable cells that is proportional to the number of cells in each well. After incubating for ten minutes with CTG plates are measured on a luminescent reader at 700 nm wavelength. Read time is approximately one second per well for a 96-well plate.
# (§11) On day five 50 uL of CTG is added to plate one, rows A-G, incubated for 10 minutes at room temperature and read on a luminescent reader. Raw data is adjusted to account for the time zero plate as well as background noise. Triplicate values are averaged and percent control growth is calculated. Percent control growth is calculated using the following logical test: If well read data point (a) is greater than time zero data point (t=0), then 100*[(a)−(t=0)]/[(72 hour total growth)−(t=0)], OR 100*[(a)−(t=0)]/[(t=0)]. Data is represented by line graph with the concentration of compound on the x axis and percent control growth on the y axis.
# Panc3.27 tumor cells = experiment: Cellular assay, Panc3.27 tumor cell proliferation (Cell Titer Glo); format: cell-based; settings: citrate salt form tested, Panc3.27 cells, 72 hour growth, read-out: PANC proliferation IC50
# Protocol: as §1, §8, §9, §10, §11
# [1] = test system: SKOV3 or Panc3.27 tumor cells; experiment: In vitro combination study, fixed concentration of IAP inhibitor with varied combination agent; format: cell-based; settings: each agent alone
# Protocol: as §8
# On day two cells are treated with the compounds of formula M-L-M′. Treatments are done in triplicate. The compounds are first serially diluted in DMSO and then added to media giving a final concentration of 0.2% DMSO when added to cells. […]
# To measure cell viability 50 uL of Cell Titer Glo (CTG) solution is added to row A, media only and B, cells and media. […] After incubating for ten minutes with CTG plates are measured on a luminescent reader at 700 nm wavelength. Read time is approximately one second per well for a 96-well plate.
# as §11, with “Raw data is adjusted to account for the time zero plate as well as background noise.” left out, “Data is represented by line graph with the concentration of compound on the x axis and percent control growth on the y axis.” left out
# cIAP1-BIR3, sequence (Q13490 260-352 limits assumed): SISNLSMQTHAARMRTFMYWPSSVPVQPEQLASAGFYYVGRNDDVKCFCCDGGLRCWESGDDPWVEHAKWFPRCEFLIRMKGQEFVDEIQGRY
# XIAP-BIR3, sequence (P98170 241-356 limits assumed): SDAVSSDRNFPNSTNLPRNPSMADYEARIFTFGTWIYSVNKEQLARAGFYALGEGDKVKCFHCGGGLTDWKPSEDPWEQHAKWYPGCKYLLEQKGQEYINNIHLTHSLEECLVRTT
Structure (SMILES),EC50 (XIAP-BIR3) [nM],EC50 (cIAP1-BIR3) [nM],IC50 (SKOV3 tumor cells) [nM],IC50 (Panc3.27 tumor cells) [nM],single agent activity in the in vitro combination study [1]
"CN[C@@H](C)C(=O)N[C@@H](CCCCNC(=O)c1ccc(-c2ccc(C(=O)NCCCC[C@H](NC(=O)[C@H](C)NC)C(=O)N3CCC[C@H]3c3cncc(C(=O)c4ccc(F)cc4)c3)cc2)cc1)C(=O)N1CCC[C@H]1c1cncc(C(=O)c2ccc(F)cc2)c1 [Example 1J, Biphenyl-4,4′-dicarboxylic acid bis-{[(S)-6-{(S)-2-[5-(4-fluorobenzoyl)-pyridin-3-yl]-pyrrolidin-1-yl}-5-((S)-2-methylamino-propionylamino)-6-oxo-hexyl]-amide}]",60.4 to 162,0.58 to 3.12,0.026 to 5.94,0.0026 to 6.67,neither Example 1J nor paclitaxel alone showed significant activity
"CN[C@@H](C)C(=O)N[C@@H](Cc1ccc(NC(=O)CCCCC(=O)Nc2ccc(C[C@H](NC(=O)[C@H](C)NC)C(=O)N3CCC[C@H]3c3cncc(C(=O)c4ccc(F)cc4)c3)cc2)cc1)C(=O)N1CCC[C@H]1c1cncc(C(=O)c2ccc(F)cc2)c1 [Example 2C, Hexanedioic acid bis-({4-[(S)-3-{(S)-2-[5-(4-fluoro-benzoyl)-pyridin-3-yl]-pyrrolidin-1-yl}-2-((S)-2-methylamino-propionylamino)-3-oxo-propyl]-phenyl}-amide)]",125 to 138,0.58 to 0.6,59.7 to 317,144 to 391,
"CN[C@@H](C)C(=O)N[C@@H](Cc1ccc(NC(=O)c2cccc(C(=O)Nc3ccc(C[C@H](NC(=O)[C@H](C)NC)C(=O)N4CCC[C@H]4c4cncc(C(=O)c5ccc(F)cc5)c4)cc3)c2)cc1)C(=O)N1CCCC1c1cncc(C(=O)c2ccc(F)cc2)c1 (stereo partly drawn) [Example 2D, N,N′-Bis-{4-[(S)-3-{(S)-2-[5-(4-fluoro-benzoyl)-pyridin-3-yl]-pyrrolidin-1-yl}-2-((S)-2-methylamino-propionylamino)-3-oxo-propyl]-pheny}-isophthalamide]",228 to 238,0.66 to 0.68,107 to 291,167 to 694,
"CC(=O)O[C@H]1C(=O)[C@@]2(C)[C@H]([C@H](OC(=O)c3ccccc3)[C@]3(O)C[C@H](OC(=O)[C@H](O)[C@@H](NC(=O)c4ccccc4)c4ccccc4)C(C)=C1C3(C)C)[C@]1(OC(C)=O)CO[C@@H]1C[C@@H]2O [Paclitaxel, paclitaxel, reference compound]",,,,,neither Example 1J nor paclitaxel alone showed significant activity

# Further lines, with some results ahead:
EC50 (XIAP-BIR3) [nM],EC50 (cIAP1-BIR3) [nM],IC50 (SKOV3 tumor cells) [nM],IC50 (Panc3.27 tumor cells) [nM],Structure (SMILES),single agent activity in the in vitro combination study [1]
99.4 to 104,0.73 to 0.81,17.1 to 23.5,37.6 to 95.7,"CN[C@@H](C)C(=O)N[C@@H](Cc1ccc(NC(=O)CCCCCCCC(=O)Nc2ccc(C[C@H](NC(=O)[C@H](C)NC)C(=O)N3CCC[C@H]3c3cncc(C(=O)c4ccc(F)cc4)c3)cc2)cc1)C(=O)N1CCC[C@H]1c1cncc(C(=O)c2ccc(F)cc2)c1 [Example 2E, Nonanedioic acid bis-({4-[(S)-3-{(S)-2-[5-(4-fluoro-benzoyl)-pyridin-3-yl]-pyrrolidin-1-yl}-2-((S)-2-methylamino-propionylamino)-3-oxo-propyl]-phenyl}-amide)]",
123 to 126,0.7,≥ 967,88.3 to 393,"CN[C@@H](C)C(=O)N[C@@H](Cc1ccc(NC(=O)CCCC(=O)Nc2ccc(C[C@H](NC(=O)[C@H](C)NC)C(=O)N3CCC[C@H]3c3cncc(C(=O)c4ccc(F)cc4)c3)cc2)cc1)C(=O)N1CCC[C@H]1c1cncc(C(=O)c2ccc(F)cc2)c1 [Example 2F, Pentanedioic acid bis-({4-[(S)-3-{(S)-2-[5-(4-fluoro-benzoyl)-pyridin-3-yl]-pyrrolidin-1-yl}-2-((S)-2-methylamino-propionylamino)-3-oxo-propyl]-phenyl}-amide)]",
